The record followed here is patent US6890959B2, “Aminomethyl-phenyl-cyclohexanone derivatives” (Gruenenthal GmbH, priority 2000, dated 2005).

Counter-ions that a name gives are not always drawn.

In the test the test system is Male NMRI mice. As to the kind of experiment: phenylquinone-induced writhing test in mice. In kind it is in vivo. To be noted: 10 mg/kg i.v.; phenylquinone i.p. 10 minutes after compound; writhing counted 5-20 minutes after phenylquinone. Here is the method:
The antinociceptive activity of the compounds according to the invention was investigated in mice in a phenylquinone-induced writhing test, as modified by I. C. Hendershot, J. Forsaith, J. Pharmacol. Exp. Ther. 125, 237-240 (1959). Male NMRI mice weighing 25-30 g were used. Groups of 10 animals per substance dose received 0.3 ml/mouse of a 0.02% aqueous solution of phenylquinone (phenylbenzoquinone, Sigma, Deisenhofen; preparation of the solution with the addition of 5% ethanol and storage in a water bath at 45° C.) administered intraperitoneally 10 minutes after intravenous administration of a compound according to the invention. The animals were placed individually in observation cages. The number of pain-induced stretching movements (so-called writhing reactions, i.e. straightening of the body with stretching of the hind extremities) was counted by means of a push-button counter for 5-20 minutes after the administration of phenylquinone. Animals which received physiological saline solution i.v. and […]. were also used as a control.
All substances were tested in a standard dose of 10 mg/kg. The percentage inhibition (% inhibition) of the writhing reactions by a substance was calculated according to the following equation: % inhibition=100−[WR treated animals/WR control×100]
As for “rac-trans-[4-dimethylaminomethyl-3-(3-methoxy-phenyl)-cyclohexanone]hydrochloride [Compound 3]”, the “% inhibition of the writhing reactions” value is on record as 92%.
On to “rac-cis-[4-Dimethylaminomethyl-3-(3-hydroxy-phenyl)-cyclohexanone [Compound 4]”, for which the “% inhibition of the writhing reactions” value is given as 100%.
On to `COc1cccc(C2CC(=O)CCC2CN(C)C)c1` (racemic) [Compound 2, rac-cis-[4-Dimethylaminomethyl-3-(3-methoxy-phenyl)-cyclohexanone]hydrochloride], for which the “% inhibition of the writhing reactions” value was 96%.
